In patent US6372690B1 (McGill University, priority 1998, dated 2002):
“Also recorded” adds a separate entry of the source.

How the values were obtained:
ragweed [1] = assay: Example 3: assay with other non-ionic surfactants, ragweed plots in waste area situation; format: in vivo
Procedure: This experiment was conducted to test another solution containing another non-ionic surfactant. The experiment was conducted on plots behind a beef barn complex, on ragweed of 6 to 10 inches in height, fully flowered, in a very hard and gravely soil, such as in a waste area situation. The experiment was conducted as a completely randomized design (CRD) with three replicates.
Each plot has a surface of one (1) m^2. The sprayer used was a small compressed air sprayer with 210 kPa pressure and a T-Jet™ 8002 nozzle. The plots were sprayed Sep. 3, 1996 at 10:00 a.m. under a bright sunshine and a temperature of 28° C. In all instances, the efficacy of the solution was evaluated 20-30 minutes, 2-4 hrs, 16-24 hrs, and 2-5 days after spraying. The efficacy of the solution was determined based on level of plant deterioration.
In this experiment, 14 different treatments were applied to the different plots (with three replicates/treatment).
Once it had been determined that a surfactant could possibly increase efficacy of the NaCl at the same time as reducing the spray volume needed, another non-ionic surfactant, namely Citowett™, was introduced into the trials. All surfactants were applied at the rates usually recommended in the Ontario Guide to Chemical Weed Control (OMAFRA, 1997).

ragweed [2] = assay: General conclusions on ragweed control from the experiments; format: in vivo
ragweed [3] = assay: Example 2: determination of an adequate volume sprayed, ragweed plots sprayed at 1000 l/ha; format: in vivo
Procedure: This experiment was conducted to determine if increasing the spray volume to the point where the plants were completely covered to the run-off stage would improve efficacy.
This experiment was conducted on plots within a fencerow of an agricultural field where ragweed plants had attained 12 to 20 inches in height, and were in full flower. The experiment was conducted as a completely randomized design (CRD) with three replicates.
Each plot has a surface of one (1) m^2. The sprayer used was a Hardi™ pack sprayer with Hardi™ nozzle and 200-220 kPa of pressure. The plots were sprayed Aug. 29, 1996 at 13:30 under a bright sunshine and a temperature of 29° C. The spray volume used was 1000 l/ha or 100 ml/m^2 plot.
In all instances, the efficacy of the solution was evaluated 30 minutes, 2-4 hrs, 16-24 hrs, and 2-5 days after spraying. The efficacy of the solution was determined based on level of plant deterioration.
In this experiment, 6 different treatments (having three replicates each) were subjected to the different plots.

ragweed [4] = assay: Example 4: concentration of salt with or without surfactants, tall ragweed in cultivated field; format: in vivo; conditions: tall ragweed (40-60 inches)
Procedure: This experiment was conducted on plot of tall ragweed (40-60 inches), fully flowered, in a cultivated field situation. The experiment was conducted as a completely randomized design (CRD) with three replicates.
Each plot has a surface of four (4) m^2. The sprayer used was a Hardi™ pack sprayer with 200-220 kPa pressure and T-Jet™ 8002 nozzle. The plots were sprayed Sep. 6, 1996 at 09:00 a.m. under a bright sunshine and a temperature of 26° C. In all instances, the efficacy of the solution was evaluated 30 minutes, 2-4 hrs, 16-24 hrs, and 2-5 days after spraying. The efficacy of the solution was determined based on level of plant deterioration.
(§1) In this experiment, 8 different treatments were applied to the different plots (with three replicates/treatment).

ragweed [5] = assay: Example 5: optimization of salt concentration with or without surfactants, cut ragweed in roadside situation; format: in vivo
Procedure: This experiment was conducted on plots having ragweed 4 to 6 inches tall, in flower, and which had been cut at least once, in a roadside situation. The experiment was conducted as a randomized complete block design (RCBD) with three replicates.
Each plot has a surface of four (4) m^2. The sprayer used was a small compressed air sprayer with 210 kPa pressure and T-Jet™ 8002 nozzle. The plots were sprayed Sep. 6, 1996 at 13:30, under a bright sunshine and a temperature of 29° C. In all instances, the efficacy of the solution was evaluated 30 minutes, 2-4 hrs, 16-24 hrs, and 2-5 days after spraying. The efficacy of the solution was determined based on level of plant deterioration.
as §1
Only the 8% and 12% rates were considered in this experiment because it had been observed that there was no efficacy or economic benefit to using the 16% or 20% rates of NaCl. Both NaCl concentrations were applied alone or with each of the three surfactants.

ragweed [6] = assay: Spraying of ragweed plants as described in the description and FIGS. 1-3; format: in vivo; conditions: 12% NaCl solution
broad-leaved plantain = assay: Selective control of broad-leaved plantain in turf (FIG. 4); format: in vivo; conditions: 12% NaCl solution; 24 hours following the application
all types of vegetation = conditions: Frear, Chemistry of Pesticides 3rd ed. p. 401, 1955; cited from earlier work

## O=[N+]([O-])[O-].[K+] [KNO3, potassium nitrate, reference compound]
Ragweed [1]; 12% KNO3
  efficacy compared with the NaCl solutions: not as effective as any of the NaCl solutions
Ragweed [2]; KNO3 at the 12% rate
  suitability as alternative to NaCl: not a viable alternative to NaCl

## [Cl-].[Na+] [NaCl, sodium chloride]
Ragweed [3]; 8% NaCl
  activity at damaging the ragweed: there was activity but it did not seem to be as effective as the 12% concentration
Ragweed [3]; 12% NaCl
  overall efficacy: sufficient
Ragweed [3]; 16% NaCl versus 12% NaCl, any time except 30 minutes after application
  difference in effect between 12% and 16% solution: little difference
Ragweed [3]; 16% NaCl, 30 minutes after application
  speed of wilting: appeared to have wilted more quickly than those treated with 12%
Ragweed [3]; NaCl at all three concentrations (8, 12, 16% W/V), 30 minutes after spraying
  reaction of ragweed to the sprays: the inflorescences were drooping
Ragweed [1]; 8% NaCl alone
  efficacy compared with the 12% solution: not as effective as the 12% solution
Ragweed [1]; 16% NaCl
  overall damage to the ragweed compared with the 12% solution: did not visibly improve overall damage to the ragweed
Ragweed [1]; 20% NaCl
  overall damage to the ragweed compared with the 12% solution: did not visibly improve overall damage to the ragweed
Ragweed [4]; 8% NaCl
  control: slightly lower
Ragweed [4]; 12% NaCl without surfactant
  efficiency compared with higher concentrations: as efficient as 16% or 20%
Ragweed [5]; 8% NaCl alone
  control of ragweed: inferior control of ragweed compared with the 12% solution
Ragweed [5]; 12% NaCl alone, 30 minutes
  effect 30 minutes after application: drooping
Ragweed [5]; 12% NaCl alone, 2 days
  effect 2 days after spraying: complete necrosis
Ragweed [6]; 24 hours following spraying
  effect on ragweed plants (FIGS. 2 and 3): drooping of ragweed staminate flowers and desiccation of leaves; also recorded: desiccated
Ragweed [6]; within 6 hours of applying
  effect on ragweed plant (FIG. 1): curling and wilting
broad-leaved plantain
  control of broad-leaved plantain in turf (FIG. 4): selective control
Ragweed [2]; salt solutions, especially NaCl solutions
  ragweed control (general conclusion): effective at ragweed control
All types of vegetation
  herbicidal effect and selectivity: will kill all types of vegetation, without any selection
